# Experiment: Storage stability of drug solutions: N-oxide content by ion pair reversed phase HPLC
# Type: physicochemical
# Conditions: solutions stored for 7 days at 40° C.; formulation employing levulinic acid
smiles,measurement,value
CC(=O)CCC(=O)O [levulinic acid],N-oxide content of the formulation,below 0.06%

# — patent US20040166148A1, “Transdermal therapeutic delivery systems with a butenolide” (priority 2003, published 2004)
